MEC data for 36 compounds are collected here from patent publication US9776997B2, “3-aryl-substituted imidazo[1,2-A]pyridines and their use” (Bayer Pharma Aktiengesellschaft, priority 2013, dated 2017).

SMILES strings stand for the structures. Structures can show the parent of a compound that is named as a salt.

The target of the test is T1, recombinant guanylate cyclase reporter cell line (Rattus norvegicus, UniProt P19686+P20595).
T1 construct: expressed in transfected cells; host or cells: recombinant reporter cell line
T1 sequence (P19686 1-690): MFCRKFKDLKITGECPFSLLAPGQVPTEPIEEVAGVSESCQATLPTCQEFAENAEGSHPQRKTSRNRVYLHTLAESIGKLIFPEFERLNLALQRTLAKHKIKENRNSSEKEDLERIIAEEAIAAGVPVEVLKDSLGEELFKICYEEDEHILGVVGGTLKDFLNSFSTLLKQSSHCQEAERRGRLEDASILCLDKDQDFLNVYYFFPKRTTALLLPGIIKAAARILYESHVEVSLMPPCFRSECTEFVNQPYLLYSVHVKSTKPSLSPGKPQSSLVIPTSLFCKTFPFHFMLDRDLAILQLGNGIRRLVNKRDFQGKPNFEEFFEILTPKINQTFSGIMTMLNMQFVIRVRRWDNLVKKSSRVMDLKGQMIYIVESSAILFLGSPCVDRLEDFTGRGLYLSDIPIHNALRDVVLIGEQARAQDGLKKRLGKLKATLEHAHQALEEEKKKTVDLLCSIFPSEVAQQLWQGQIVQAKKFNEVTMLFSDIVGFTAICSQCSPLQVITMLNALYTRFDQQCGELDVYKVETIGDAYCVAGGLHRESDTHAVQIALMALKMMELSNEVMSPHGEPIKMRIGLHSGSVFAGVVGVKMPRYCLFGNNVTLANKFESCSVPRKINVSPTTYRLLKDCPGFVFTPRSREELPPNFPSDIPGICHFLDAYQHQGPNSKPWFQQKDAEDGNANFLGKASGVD
T1 sequence (P20595 1-619): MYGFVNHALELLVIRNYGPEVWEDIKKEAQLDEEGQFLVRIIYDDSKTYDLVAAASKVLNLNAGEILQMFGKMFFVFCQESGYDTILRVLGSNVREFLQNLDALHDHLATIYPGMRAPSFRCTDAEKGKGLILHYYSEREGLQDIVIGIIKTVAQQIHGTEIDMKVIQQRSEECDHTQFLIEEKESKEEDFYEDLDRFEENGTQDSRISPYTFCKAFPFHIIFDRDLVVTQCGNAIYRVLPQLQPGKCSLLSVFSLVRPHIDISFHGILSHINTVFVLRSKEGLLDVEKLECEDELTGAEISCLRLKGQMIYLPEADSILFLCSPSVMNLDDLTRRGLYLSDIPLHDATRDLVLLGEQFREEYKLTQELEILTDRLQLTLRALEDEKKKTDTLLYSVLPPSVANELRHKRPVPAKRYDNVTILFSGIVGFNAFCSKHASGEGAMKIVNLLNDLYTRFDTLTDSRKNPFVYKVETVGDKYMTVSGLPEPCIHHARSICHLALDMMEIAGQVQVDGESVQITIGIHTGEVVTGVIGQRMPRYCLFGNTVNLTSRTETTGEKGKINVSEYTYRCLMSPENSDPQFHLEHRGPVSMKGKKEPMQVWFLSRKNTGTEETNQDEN
The test can be described thus: Effect on a recombinant guanylate cyclase reporter cell line. The test is classed as cell-based. The note with it: MEC = minimum effective concentration; in some cases mean values for individual determinations. How it is done: B-2. Effect on a Recombinant Guanylate Cyclase Reporter Cell Line
The cellular effect of the inventive compounds is determined using a recombinant guanylate cyclase reporter cell line, as described in F. Wunder et al., Anal. Biochem. 339, 104-112 (2005).
Representative MEC values (MEC=minimum effective concentration) for the inventive compounds are shown in the table below (in some cases as mean values for individual determinations): […]
Consider `Cc1nc2c(OCc3c(F)cccc3F)cccn2c1-c1ccncc1` [Example 29, 8-[(2,6-difluorobenzyl)oxy]-2-methyl-3-(pyridin-4-yl)imidazo[1,2-a]pyridine], for which the MEC was 1.0 µM. With `Cc1ccc(-c2c(C)nc3c(OCc4c(F)cccc4F)cccn23)cc1` [Example 30, 8-[(2,6-difluorobenzyl)oxy]-2-methyl-3-(4-methylphenyl)imidazo[1,2-a]pyridine], the MEC was 3.0 µM. As for `Cc1nc2c(OCc3c(F)cccc3F)cccn2c1-c1ccc(Oc2ccccc2)cc1` [Example 31, 8-[(2,6-difluorobenzyl)oxy]-2-methyl-3-(4-phenoxyphenyl)imidazo[1,2-a]pyridine], the MEC came to 3.0 µM. On to `C=Cc1ccc(-c2c(C)nc3c(OCc4c(F)cccc4F)cccn23)cc1` [Example 32, 8-[(2,6-difluorobenzyl)oxy]-2-methyl-3-(4-vinylphenyl)imidazo[1,2-a]pyridine], for which the MEC stood at 3.0 µM. With `CSc1cccc(-c2c(C)nc3c(OCc4c(F)cccc4F)cccn23)c1` [Example 33, 8-[(2,6-difluorobenzyl)oxy]-2-methyl-3-[3-(methylsulphanyl)phenyl]imidazo[1,2-a]pyridine], the MEC is 3.0 µM. Turning to `Cc1nc2c(OCc3c(F)cccc3F)cccn2c1-c1cccc(Cl)c1` [Example 34, 3-(3-chlorophenyl)-8-[(2,6-difluorobenzyl)oxy]-2-methylimidazo[1,2-a]pyridine], the MEC was 3.0 µM.

Take `Cc1nc2c(OCc3c(F)cccc3F)cccn2c1-c1csc2ccccc12` [Example 35, 3-(1-benzothiophen-3-yl)-8-[(2,6-difluorobenzyl)oxy]-2-methylimidazo[1,2-a]pyridine]: the MEC amounted to 3.0 µM.

With `Cc1nc2c(OCc3c(F)cccc3F)cccn2c1-c1ccc2c(ccn2C)c1` [Example 36, 8-[(2,6-difluorobenzyl)oxy]-2-methyl-3-(1-methyl-1H-indol-5-yl)imidazo[1,2-a]pyridine], the MEC came to 3.0 µM. In the case of `Cc1nc2c(OCc3c(F)cccc3F)cccn2c1-c1ccc2c(c1)OCCO2` [Example 37, 8-[(2,6-difluorobenzyl)oxy]-3-(2,3-dihydro-1,4-benzodioxin-6-yl)-2-methylimidazo[1,2-a]pyridine] it was 3.0 µM; in that of `Cc1nc2c(OCc3c(F)cccc3F)cccn2c1-c1cccc(N2CCCCC2)c1` [Example 38, 8-[(2,6-difluorobenzyl)oxy]-2-methyl-3-[3-(piperidin-1-yl)phenyl]imidazo[1,2-a]pyridine], 3.0 µM; in that of `Cc1nc2c(OCc3c(F)cccc3F)cccn2c1-c1ccc(CN2CCOCC2)c(F)c1` [Example 39, 8-[(2,6-difluorobenzyl)oxy]-3-[3-fluoro-4-(morpholin-4-ylmethyl)phenyl]-2-methylimidazo[1,2-a]pyridine], 3.0 µM. In the case of `Cc1nc2c(OCc3c(F)cccc3F)cccn2c1-c1ccc(C(N)=O)cc1` [Example 40, 4-{8-[(2,6-difluorobenzyl)oxy]-2-methylimidazo[1,2-a]pyridin-3-yl}benzamide] it was 3.0 µM; in that of `COc1ccc(-c2c(C)nc3c(OCc4c(F)cccc4F)cccn23)cc1CN1CCOCC1` [Example 41, 8-[(2,6-difluorobenzyl)oxy]-3-[4-methoxy-3-(morpholin-4-ylmethyl)phenyl]-2-methylimidazo[1,2-a]pyridine], 3.0 µM; in that of `Cc1nc2c(OCc3c(F)cccc3F)cccn2c1-c1cccc(CN2CCCCC2)c1` [Example 42, 8-[(2,6-difluorobenzyl)oxy]-2-methyl-3-[3-(piperidin-1-ylmethyl)phenyl]imidazo[1,2-a]pyridine], 3.0 µM. Turning to `CCN(CC)Cc1ccc(-c2c(C)nc3c(OCc4c(F)cccc4F)cccn23)cc1F` [Example 43, N-(4-{8-[(2,6-difluorobenzyl)oxy]-2-methylimidazo[1,2-a]pyridin-3-yl}-2-fluorobenzyl)-N-ethylethanamine], the MEC came to 3.0 µM. For `Cc1nc2c(OCc3c(F)cccc3F)cccn2c1-c1ccc(F)c(CN2CCOCC2)c1` [Example 44, 8-[(2,6-difluorobenzyl)oxy]-3-[4-fluoro-3-(morpholin-4-ylmethyl)phenyl]-2-methylimidazo[1,2-a]pyridine], the MEC stood at 3.0 µM.

On to `Cc1nc2c(OCc3c(F)cccc3F)cccn2c1-c1cn[nH]c1` [Example 45, 8-[(2,6-difluorobenzyl)oxy]-2-methyl-3-(1H-pyrazol-4-yl)imidazo[1,2-a]pyridine], for which the MEC came to 0.1 µM. The same measure for `Cc1nc2c(OCc3c(F)cccc3F)cccn2c1-c1cccc(S(C)(=O)=O)c1` [Example 46]: 0.2 µM. In the case of `Cc1nc2c(OCc3c(F)cccc3F)cccn2c1-c1ccn[nH]1` [Example 47] it was 0.3 µM; in that of `Cc1nc2c(OCc3c(F)cccc3F)cccn2c1-c1cccc(NS(C)(=O)=O)c1` [Example 48], 0.2 µM. In the case of `CCn1cc(-c2c(C)nc3c(OCc4c(F)cccc4F)cccn23)cn1` [Example 49] it was 0.3 µM; in that of `Cc1nc2c(OCc3c(F)cccc3F)cccn2c1-c1cnn(C)c1` [Example 50], 0.3 µM; in that of `Cc1nc2c(OCc3c(F)cccc3F)cccn2c1-c1ccc2cn[nH]c2c1` [Example 51], 0.3 µM. Turning to `Cc1nc2c(OCc3c(F)cccc3F)cccn2c1-c1cnn(C(C)C)c1` [Example 52], the MEC was found to be 0.3 µM. Regarding `Cc1nc2c(OCc3c(F)cccc3F)cccn2c1-c1cccc2[nH]ncc12` [Example 53], the MEC was found to be 1.0 µM. The same measure for `Cc1nc2c(OCc3c(F)cccc3F)cccn2c1-c1ccc2[nH]ncc2c1` [Example 54]: 1.0 µM; for `Cc1nn(C)cc1-c1c(C)nc2c(OCc3c(F)cccc3F)cccn12` [Example 55]: 1.0 µM. For the compound `Cc1nc2c(OCc3c(F)cccc3F)cccn2c1-c1cnn(C)c1C` [Example 56], the MEC worked out at 3.0 µM. `CCNc1nnc(-c2c(C)nc3c(OCc4c(F)cccc4F)cccn23)o1` [Example 57, 5-{8-[(2,6-Difluorobenzyl)oxy]-2-methylimidazo[1,2-a]pyridin-3-yl}-N-ethyl-1,3,4-oxadiazole-2-amine]: the MEC is 1.0 µM. As to `Cc1nc2c(OCc3c(F)cccc3F)cccn2c1-c1nnc(N)o1` [Example 58, 5-{8-[(2,6-Difluorobenzyl)oxy]-2-methylimidazo[1,2-a]pyridin-3-yl}-1,3,4-oxadiazole-2-amine], the MEC stood at 3.0 µM.

In the case of `Cc1nc2c(OCc3c(F)cccc3F)cccn2c1-c1ccnc(-c2ccc(F)cc2)c1` [Example 59, 8-[(2,6-Difluorobenzyl)oxy]-3-[2-(4-fluorophenyl)pyridin-4-yl]-2-methylimidazo[1,2-a]pyridine], the MEC stood at 1.0 µM.

As to `Cc1nc2c(OCc3c(F)cccc3F)cccn2c1-c1cnccn1` [Example 60, 8-[(2,6-Difluorobenzyl)oxy]-2-methyl-3-(pyrazin-2-yl)imidazo[1,2-a]pyridine], the MEC was determined as 3.0 µM. Turning to `CCCCc1coc(-c2c(C)nc3c(OCc4c(F)cccc4F)cc(Cl)cn23)n1` [Example 61, 3-(4-Butyl-1,3-oxazol-2-yl)-6-chloro-8-[(2,6-difluorobenzyl)oxy]-2-methylimidazo[1,2-a]pyridine trifluoroacetate], the MEC stood at 3.0 µM. Take `Cc1nc2c(OCC3CCCCC3)cccn2c1-c1nnc(-c2ncccn2)o1` [Example 62, 8-(Cyclohexylmethoxy)-2-methyl-3-[5-(pyrimidin-2-yl)-1,3,4-oxadiazol-2-yl]imidazo[1,2-a]pyridine]: the MEC came to 3.0 µM. In the case of `Cc1nc2c(OCC3CCCCC3)cccn2c1-c1nnc(-c2cccnc2)o1` [Example 64] it was 3.0 µM; in that of `Cc1nc2c(OCC3CCCCC3)cccn2c1-c1nnc(C(C)O)o1` (stereo not drawn) [Example 65], 3.0 µM.
